From patent US5869714A, “Salts of omega-3-polyunsaturated fatty acids and pharmaceutical formulations containing them” (Prospa B.V., priority 1994, dated 1999)
Structures can show the parent of a compound that is named as a salt.

How the values were obtained:
water solubility = format: physicochemical
[1] = system: erythrocyte phospholipids; assay: DHA content of erythrocyte phospholipids in healthy volunteers after 3 weeks oral treatment; format: in vivo; settings: 1 g of DHA daily for 3 weeks
Experimental: Considering that the phospholipid class of the erythrocyte membrane, along with the degree of unsaturation of the acyl chains, does condition red cell deformability and blood viscosity, it has been conducted a study to ascertain the effect of the salts in question on erythrocyte phospholipid composition, which we describe hereunder in illustration. 8 healthy volunteers were then selected and divided into 4 groups which were treated by oral route for 3 weeks with a daily quantity of DHA 1.0 g in the form of ethyl ester (1.1 g), sodium salt (1.1 g), choline salt (1.3 g) and ethanolamine salt (1.2 g). Before and after treatment samples of venous blood were collected and sodium citrate added, then the erythrocytes were isolated, washed for 3 times with saline solution (0.15M NaCl, pH 7.4) at 0° and again suspended in saline solution. 1-ml samples from the red cell suspensions were treated with 5 ml of methanol for 10 minutes then with 5 ml of chloroform containing 2 mg/100 ml of the antioxidant 2,6-di-tert.butyl-4-methyl-phenol (BHT). The organic solvents originating from 3 extractions were evaporated to dryness and the residue, formed by the erythrocyte phospholipids, was subjected to bidimensional chromatography according to Turner J. D. and Rouser G., Anal. Biochem. (Part 1--Erythrocyte lipids), 38, 423, 1970 to separate the different phospholipid classes: silica gel 60H (90 g, Merck) plus Fluorisil (7.2 g, BDH Chemicals) plates were used; the solvent systems consisted of chloroform:methanol: 25% ammonia:water (90:54:5.5:5.5) and chloroform:methanol:acetone:acetic acid:water (60:20:80:20:10). The various classes were identified against standard phospolipids (Sigma Chemical). A sample of total phospholipids and the various stains isolated were treated with 1.5 ml of boron trifluoride-methanol for 1 h at 65° C. under nitrogen, to prepare the methyl esters of the acids contained in the phospholipids to undergo gas-chromatography. To this end a Hewlet-Packard 5890 gas-chromatograph was used, fitted with a ionisation flame detector and with an HPl column 25 m in length and 0.31 mm in int. diameter; elium was used as the carrier gas, the injection port temperature was 320° C. and the detector temperature 340° C. The chamber temperature was programmed at 170° C. for 1 min., then increased by 4°°C./min up to 250° C. and kept at this temperature for 15 minutes.

[2] = system: thrombus growth rate induced by ADP in the hamster microvascular system; assay: in vivo antithrombotic action: growth rate of thrombus induced by ADP in hamster microvascular system; design: species or system hamster (Mesocricetus auratus); settings: oral; for percentage reduction in ADP-induced thrombus growth rate, of the order of max.: maximum; for antithrombotic activity (in words): 10 days
Text: Considered however that this action is not fully indicative of the possible therapeutic effects of a drug, we measured the in vivo effect of the new salts in extremely significant tests, by determining for instance, their effect on growth rate of a thrombus induced by a known aggregatory agent (adenosine diphosphate; ADP) in the hamster microvascular system (in vivo antithrombotic action).
(§1) In the course of a typical experiment, male hamsters of the Mesocricetus auratus genus, weighing 95-115 g, were acclimatized for 1 week in the laboratory before starting the study, then semi-chronically treated by oral route, for 10 consecutive days with the products under examination. More precisely, the animals were divided into 4 groups: group I received the vehicle alone, group II received DHA ethyl ester 100 mg/kg (equivalent to DHA 92 mg/kg), group III and IV were given DHA 50 mg/kg in the form of ethanolamine salt (59.3 mg/kg) and choline salt (65.7 mg/kg respectively).One hour following the last dose the animals were anaesthetized with sodium pentobarbitone (90 mg/kg, i.p.), the cheek pouch everted with a cotton wool bud and the upper layer and the underlying a vascular connective tissue removed with ophthalmic scissors to expose the lower vascular layer which was then bathed with saline solution and examined under a Leitz Dialux microscope (magnification×250).
Evaluation of the antithrombotic activity requires measuring the growth rate of a thrombus (white body) in the microcirculation induced by the iontophoresis of ADP from a micropipette through the vessel wall. A micropipette of diameter 12μ was filled with 10^-2 M solution of ADP connected with a silver/silver chloride reference electrode placed in the animal's mouth and applied to a venule of diameter 16-40μ. By applying a negative potential to the micropipette, ADP (2×10^-14moles per second) was injected which caused the formation of a white body (platelet thrombus) gradually growing from the wall of the venule. The growth rate of the thrombus was determined by the time taken for 30%, 50% and 90% of the white body to form, 100% referring to total occlusion of the vessel with stasis. When the current was switched off, the white body rapidly embolised and no new white bodies formed until the current was re-applied. Inhibition of thrombus growth rate was calculated by comparing measurements in treated animals with those obtained in the control group (Table 2).

[3] = system: arteriolar thrombus disaggregation; assay: thrombolytic action: arteriolar thrombus disaggregation time after electrical vascular damage in the hamster; format: in vivo, hamster (Mesocricetus auratus); settings: oral; for thrombolytic activity (in words): 10 days
Experimental: Through a different in vivo experimental model also the effect on thrombus formation and disaggregation was evaluated in the hamster, following vascular damage induced by electrical stimulation (thrombolytic action).
as §1
For the evaluation of the thrombolytic activity a micropipette was filled with 1.0M potassium chloride, applied to an arteriole of diameter 40-60μ and connected to a reference electrode placed in the animal's mouth. A negative potential was applied for 5 seconds using a Grass S48 stimulator to produce a current of 20-30 μA. A second micropipette containing 10^-2 M ADP was applied to the site of electrical damage and a negative potential applied, for 3 seconds. After the current was switched off, the time taken for the resultant thrombus to form and to disaggregate (about 40 seconds) was recorded using a stopwatch. The process of ADP stimulation of the arteriole damaged site was repeated several times and the mean was recorded of the values obtained over one hour and compared with that of the control animals.
The percentage change in the persistence of the thrombus adhering to the damaged site in the treated and untreated animals is therefore an index of the thrombolytic activity of the drug (Table 3).

[4] = 60 minutes post-dose, equiv. to DHA 50 mg/kg × 10 days
[5] = 70 minutes post-dose, equiv. to DHA 50 mg/kg × 10 days
[6] = 80 minutes post-dose, equiv. to DHA 50 mg/kg × 10 days
[7] = 90 minutes post-dose, equiv. to DHA 50 mg/kg × 10 days
[8] = 100 minutes post-dose, equiv. to DHA 50 mg/kg × 10 days
[9] = 110 minutes post-dose, equiv. to DHA 50 mg/kg × 10 days
[10] = 120 minutes post-dose, equiv. to DHA 50 mg/kg × 10 days
[11] = equiv. to DHA 50 mg/kg × 10 days
[12] = 60-70 minutes post-dose, equiv. to DHA 50 mg/kg × 10 days
[13] = 70-80 minutes post-dose, equiv. to DHA 50 mg/kg × 10 days
[14] = 80-90 minutes post-dose, equiv. to DHA 50 mg/kg × 10 days
[15] = 90-100 minutes post-dose, equiv. to DHA 50 mg/kg × 10 days
[16] = 100-110 minutes post-dose, equiv. to DHA 50 mg/kg × 10 days
[17] = 110-120 minutes post-dose, equiv. to DHA 50 mg/kg × 10 days
[18] = maximum, equiv. to DHA 50 mg/kg × 10 days

Row | SMILES | water solubility (water solubility) | Percent increase in DHA content of erythrocyte phospholipids as compared to baseline values: Phosphatidylcholine [1] [%] | Percent increase in DHA content of erythrocyte phospholipids as compared to baseline values: Phosphatidylethanolamine [1] [%] | Percent increase in DHA content of erythrocyte phospholipids as compared to baseline values: Total phospholipids [1] [%] | Percentage reduction, as compared to the controls, of thrombus growth rate induced by ADP [2, 4] [%] | Percentage reduction, as compared to the controls, of thrombus growth rate induced by ADP [2, 5] [%] | Percentage reduction, as compared to the controls, of thrombus growth rate induced by ADP [2, 6] [%] | Percentage reduction, as compared to the controls, of thrombus growth rate induced by ADP [2, 7] [%] | Percentage reduction, as compared to the controls, of thrombus growth rate induced by ADP [2, 8] [%] | Percentage reduction, as compared to the controls, of thrombus growth rate induced by ADP [2, 9] [%] | Percentage reduction, as compared to the controls, of thrombus growth rate induced by ADP [2, 10] [%] | percentage reduction in ADP-induced thrombus growth rate, of the order of max. [2, 11] | antithrombotic activity (in words) [2] | Percentage reduction, as compared to the controls, of arteriolar thrombus disaggregation time [3, 12] [%] | Percentage reduction, as compared to the controls, of arteriolar thrombus disaggregation time [3, 13] [%] | Percentage reduction, as compared to the controls, of arteriolar thrombus disaggregation time [3, 14] [%] | Percentage reduction, as compared to the controls, of arteriolar thrombus disaggregation time [3, 15] [%] | Percentage reduction, as compared to the controls, of arteriolar thrombus disaggregation time [3, 16] [%] | Percentage reduction, as compared to the controls, of arteriolar thrombus disaggregation time [3, 17] [%] | thrombolytic activity (in words) [3] | further results
1 | CC/C=C\C/C=C\C/C=C\C/C=C\C/C=C\CCCC(=O)O [EPA choline salt] | water-soiuble |  |  |  |  |  |  |  |  |  |  |  |  |  |  |  |  |  |  |  | 
2 | CC/C=C\C/C=C\C/C=C\C/C=C\C/C=C\C/C=C\CCC(=O)O [DHA choline salt] |  | 146 | 38 | 102 | 15.6 | 35.4 | 28.3 | 34.2 | 20.8 | 20.2 | 24.7 | 33-34% | highly active | 31.6 | 32.8 | 35.4 | 37.7 | 28.6 | 29.1 | definitely more active, if given at the same doses | reduction in disaggregation time [3, 18]: 37-38%
3 | CC/C=C\C/C=C\C/C=C\C/C=C\C/C=C\CCCC(=O)O [EPA ethanolamine salt] | highly water-soluble |  |  |  |  |  |  |  |  |  |  |  |  |  |  |  |  |  |  |  | 
4 | CC/C=C\C/C=C\C/C=C\C/C=C\C/C=C\C/C=C\CCC(=O)OCC [DHA ethyl ester, reference compound] |  | 77 | 10 | 56 |  |  |  |  |  |  |  |  | moderately active |  |  |  |  |  |  | highly active | Percentage reduction, as compared to the controls, of thrombus growth rate induced by ADP ([2]; 60 minutes post-dose, 100 mg/kg × 10 days): 5.5%; Percentage reduction, as compared to the controls, of thrombus growth rate induced by ADP ([2]; 70 minutes post-dose, 100 mg/kg × 10 days): 12.5%; Percentage reduction, as compared to the controls, of thrombus growth rate induced by ADP ([2]; 80 minutes post-dose, 100 mg/kg × 10 days): 26.3%; Percentage reduction, as compared to the controls, of thrombus growth rate induced by ADP ([2]; 90 minutes post-dose, 100 mg/kg × 10 days): 17.4%; Percentage reduction, as compared to the controls, of thrombus growth rate induced by ADP ([2]; 100 minutes post-dose, 100 mg/kg × 10 days): 15.1%; Percentage reduction, as compared to the controls, of thrombus growth rate induced by ADP ([2]; 110 minutes post-dose, 100 mg/kg × 10 days): 8.7%; Percentage reduction, as compared to the controls, of thrombus growth rate induced by ADP ([2]; 120 minutes post-dose, 100 mg/kg × 10 days): 14.9%; Percentage reduction, as compared to the controls, of arteriolar thrombus disaggregation time ([3]; 60-70 minutes post-dose, 100 mg/kg × 10 days): 21.4%; Percentage reduction, as compared to the controls, of arteriolar thrombus disaggregation time ([3]; 70-80 minutes post-dose, 100 mg/kg × 10 days): 30.5%; Percentage reduction, as compared to the controls, of arteriolar thrombus disaggregation time ([3]; 80-90 minutes post-dose, 100 mg/kg × 10 days): 36.2%; Percentage reduction, as compared to the controls, of arteriolar thrombus disaggregation time ([3]; 90-100 minutes post-dose, 100 mg/kg × 10 days): 32.9%; Percentage reduction, as compared to the controls, of arteriolar thrombus disaggregation time ([3]; 100-110 minutes post-dose, 100 mg/kg × 10 days): 27.8%; Percentage reduction, as compared to the controls, of arteriolar thrombus disaggregation time ([3]; 110-120 minutes post-dose, 100 mg/kg × 10 days): 25.9%; percentage reduction in arteriolar thrombus disaggregation time ([3]; maximum, 100 mg/kg × 10 days): 36.2%
5 | CC/C=C\C/C=C\C/C=C\C/C=C\C/C=C\C/C=C\CCC(=O)O [DHA ethanolamine salt] | totally water-soluble | 113 | 70 | 103 | 16.5 | 29.8 | 32.2 | 33.2 | 26.6 | 25.0 | 22.3 | 33-34% | highly active | 30.3 | 34.2 | 34.5 | 38.1 | 30.4 | 29.8 | definitely more active, if given at the same doses | reduction in disaggregation time [3, 18]: 37-38%
6 | CC/C=C\C/C=C\C/C=C\C/C=C\C/C=C\C/C=C\CCC(=O)O [DHA sodium salt, reference compound] |  |  |  |  |  |  |  |  |  |  |  |  |  |  |  |  |  |  |  |  | Percent increase in DHA content of erythrocyte phospholipids as compared to baseline values: Phosphatidylcholine ([1]; sodium salt): 93%; Percent increase in DHA content of erythrocyte phospholipids as compared to baseline values: Phosphatidylethanolamine ([1]; sodium salt): 25%; Percent increase in DHA content of erythrocyte phospholipids as compared to baseline values: Total phospholipids ([1]; sodium salt): 75%
